What all share (format): in vivo
Assay [1] relates to Beet Armyworm (Spodoptera exigua, LAPHEG). The experiment in a line: Bioassays on Beet Armyworm (BAW), 128-well diet tray assay. The conditions noted are these: Spodoptera exigua. The method in brief:
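Diet-overlay assay: 50 μg/cm^2 compound applied in 90:10 acetone-water to artificial diet, allowed to dry, then infested with 1–5 L2 larvae/well; 8 wells/compound; covered, vented; 25° C., 14:10 L:D, 5–7 d; % mortality per well, averaged.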

Assay [2] concerns Cabbage Looper (Trichoplusia ni, TRIPNI). The experiment in a line: Bioassays on Cabbage Looper (CL), 128-well diet tray assay. To be noted: Trichoplusia ni. The procedure, abridged:
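Second-instar larvae (1–5 per well) placed on artificial diet surface-treated with 50 μg/cm^2 test molecule applied in 90:10 acetone-water and dried. Held at 25° C., 14:10 light-dark, for five to seven days. Percent mortality scored per well and averaged over eight wells.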

Assay [3] concerns Yellow Fever Mosquito (Aedes aegypti, AEDSAE). The conditions noted are these: for YFM rating: Table ABC / ABC-DP rating. The method in brief: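 Compounds from 4000 ppm DMSO stocks were diluted in 90:10 water/acetone and dispensed into wells, then infested with about 1-day-old larvae in liver-powder water. Covered plates were held at room temperature for 3 days and each well was scored for mortality against a rating scale; six replicate plates per compound.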

[4] abbreviates: Beet Armyworm, rating class, read-out: BAW.
Setting [5] is: Cabbage Looper, rating class, read-out: CL.
Where [6] appears, read: Yellow Fever Mosquito, rating class.
The mark [7] stands for this setting: Table ABC: Biological Results, species BAW, read-out: BAW.
Setting [8] is: Table ABC: Biological Results, species CL, read-out: CL.
Where [9] appears, read: Table ABC: Biological Results, species YFM.
Setting [10] is: Beet Armyworm, Table ABC / ABC-DP rating, read-out: BAW rating.
[11] abbreviates: Cabbage Looper, Table ABC / ABC-DP rating, read-out: CL rating.

SMILES strings stand for the structures. Read-outs that look alike come from different tables or passages of the source.

As for `CC(CC(=O)Nc1c(F)ccc(NC(=O)c2cc(NC(=O)[C@H]3[C@H](c4ccc(F)c(C(F)(F)F)c4)C3(Cl)Cl)ccc2Cl)c1F)C(F)(F)F` (stereo partly drawn) [F1760, 2-Chloro-5-((1R,3R)-2,2-dichloro-3-(4-fluoro-3-(trifluoromethyl)phenyl)cyclopropane-1-carboxamido)-N-(2,4-difluoro-3-(4,4,4-trifluoro-3-methylbutanamido)phenyl)benzamide], the pest or weed control at 50 µg/cm2 in assay [1] (setting [4]) and in assay [2] (setting [5]) was 50 to 100% in each case. In assay [3] (setting [6]), the YFM entry is given as “A (80–100)”.

Take `COc1c(F)cc(NC(=O)[C@H]2[C@H](c3ccc(F)c(Cl)c3)C2(Cl)Cl)cc1C(=O)Nc1ccc(NC(C)=O)cc1` (relative stereo) [F1220, trans-N-(4-Acetamidophenyl)-5-(2,2-dichloro-3-(3-chloro-4-fluorophenyl)-cyclopropane-1-carboxamido)-3-fluoro-2-methoxybenzamide]: the pest or weed control at 50 µg/cm2 in assay [1] (setting [7]) and in assay [2] (setting [8]) was 50 to 100% each time. In addition, the YFM result in assay [3] (setting [9]) was “A (80–100)”.

Regarding `CCC(=O)Nc1c(F)ccc(NC(=O)c2cc(NC(=O)[C@H]3[C@H](c4cccc(C(F)(F)F)c4)C3(Cl)Cl)ccc2Cl)c1F` [F1679, 2-Chloro-5-((1R,3R)-2,2-dichloro-3-(3-(trifluoromethyl)phenyl)cyclopropane-1-carboxamido)-N-(2,4-difluoro-3-propionamidophenyl)benzamide], the pest or weed control at 50 µg/cm2 in assay [1] (setting [4]) and in assay [2] (setting [5]) was 50 to 100% each time. For the same molecule, the YFM result in assay [3] (setting [6]) is listed as “A (80–100)”.

Take `CCCNC(=O)c1c(Cl)ccc(NC(=O)[C@H]2[C@H](c3ccc(F)c(Cl)c3)C2(Cl)Cl)c1Cl` (relative stereo) [F2022, trans-2,6-Dichloro-3-(2,2-dichloro-3-(3-chloro-4-fluorophenyl)cyclopropane-1-carboxamido)-N-propylbenzamide]: the pest or weed control at 50 µg/cm2 in assay [1] (setting [10]) and in assay [2] (setting [11]) was 50 to 100% in each case. In assay [3] (Yellow Fever Mosquito), the YFM rating entry was “A (80–100)”.

In the case of `Cc1cc(NCc2ccc(O)cc2)ccc1NC(=O)c1cc(NC(=O)[C@H]2[C@H](c3cc(Cl)cc(Cl)c3)C2(Cl)Cl)ccc1Cl` (relative stereo) [F1353, trans-2-Chloro-5-(2,2-dichloro-3-(3,5-dichlorophenyl)cyclopropane-1-carboxamido)-N-(4-((4-hydroxybenzyl)amino)-2-methylphenyl)benzamide], the pest or weed control at 50 µg/cm2 in assay [1] (setting [7]) and in assay [2] (setting [8]) was 50 to 100% in each case. Besides, the YFM result in assay [3] (setting [9]) is recorded as “A (80–100)”.

For `O=C(CCC(F)(C(F)(F)F)C(F)(F)F)Nc1c(F)ccc(NC(=O)c2cc(NC(=O)[C@H]3[C@H](c4ccc(F)c(C(F)(F)F)c4)C3(Cl)Cl)ccc2Cl)c1F` [F1829, 2-Chloro-5-((1R,3R)-2,2-dichloro-3-(4-fluoro-3-(trifluoromethyl)phenyl)cyclopropane-1-carboxamido)-N-(2,4-difluoro-3-(4,5,5,5-tetrafluoro-4-(trifluoromethyl)pentanamido)phenyl)benzamide], the pest or weed control at 50 µg/cm2 in assay [1] (setting [10]) and in assay [2] (setting [11]) was 50 to 100% in each case. Also, in assay [3] (Yellow Fever Mosquito), the YFM rating result is on record as “A (80–100)”.

Regarding `O=C(Nc1ccc(F)c(NC(=O)C2CCOC2)c1F)c1cc(NC(=O)[C@H]2[C@H](c3ccc(F)c(C(F)(F)F)c3)C2(Cl)Cl)ccc1Cl` (stereo partly drawn) [F1480, N-(3-(2-Chloro-5-((1R,3R)-2,2-dichloro-3-(4-fluoro-3-(trifluoromethyl)phenyl)cyclopropane-1-carboxamido)benzamido)-2,6-difluorophenyl)tetrahydrofuran-3-carboxamide], the pest or weed control at 50 µg/cm2 in assay [1] (setting [4]) and in assay [2] (setting [5]) was 50 to 100% in each case. The YFM entry in assay [3] (setting [6]) is listed as “A (80–100)”.

As for `O=C(CCNC(=O)c1cc(NC(=O)C2C(c3cc(Cl)cc(Cl)c3)C2(Cl)Cl)ccc1Cl)NCC(F)(F)F` [F2079, trans-2-Chloro-5-((1R,3R)-2,2-dichloro-3-(3,5-dichlorophenyl)cyclopropane-1-carboxamido)-N-(3-oxo-3-(2,2,2-trifluoroethylamino)propyl)benzamide], the pest or weed control at 50 µg/cm2 in assay [1] (setting [10]) and in assay [2] (setting [11]) was 50 to 100% in each case. The YFM rating entry in assay [3] (Yellow Fever Mosquito) is recorded as “A (80–100)”.

Take `Cc1cc(NC(=O)[C@H]2[C@H](c3ccc(F)c(Cl)c3)C2(Cl)Cl)cc(C(=O)Nc2ccc(F)cc2F)c1F` (relative stereo) [F1137, trans-5-(2,2-Dichloro-3-(3-chloro-4-fluorophenyl)cyclopropane-1-carboxamido)-N-(2,4-difluorophenyl)-2-fluoro-3-methylbenzamide]: the pest or weed control at 50 µg/cm2 in assay [1] (setting [7]) and in assay [2] (setting [8]) was 50 to 100% each time. Further, in assay [3] (setting [9]), the YFM entry is recorded as “A (80–100)”.

As for `Nc1c(F)ccc(NC(=O)c2cc(NC(=O)[C@H]3[C@H](c4cc(Cl)cc(S(F)(F)(F)(F)F)c4)C3(Cl)Cl)ccc2Cl)c1F` (relative stereo) [F1259, trans-N-(3-Amino-2,4-difluorophenyl)-2-chloro-5-(2,2-dichloro-3-(3-chloro-5-(pentafluoro-λ^6-sulfanyl)phenyl)cyclopropane-1-carboxamido)benzamide], the pest or weed control at 50 µg/cm2 in assay [1] (setting [7]) and in assay [2] (setting [8]) was 50 to 100% in each case. The YFM result in assay [3] (setting [9]) was “A (80–100)”.

For the molecule `O=C(Nc1c(F)ccc(NC(=O)c2cc(NC(=O)[C@H]3[C@H](c4ccc(F)c(C(F)(F)F)c4)C3(Cl)Cl)ccc2Cl)c1F)C(=O)c1ccccc1` [F1298, 2-Chloro-5-((1R,3R)-2,2-dichloro-3-(4-fluoro-3-(trifluoromethyl)phenyl)cyclopropane-1-carboxamido)-N-(2,4-difluoro-3-(2-oxo-2-phenylacetamido)phenyl)benzamide], the pest or weed control at 50 µg/cm2 in assay [1] (setting [7]) and in assay [2] (setting [8]) was 50 to 100% each time. Besides, the YFM entry in assay [3] (setting [9]) is reported as “A (80–100)”.

For `CC(=O)Nc1c(F)ccc(NC(=O)c2cc(NC(=O)[C@H]3[C@H](c4cc(C(F)(F)F)cc(C(F)(F)F)c4)C3(Cl)Cl)ccc2Cl)c1F` (relative stereo) [F1803, trans-N-(3-Acetamido-2,4-difluorophenyl)-5-(3-(3,5-bis(trifluoromethyl)phenyl)-2,2-dichlorocyclopropane-1-carboxamido)-2-chlorobenzamide], the pest or weed control at 50 µg/cm2 in assay [1] (setting [10]) and in assay [2] (setting [11]) was 50 to 100% in each case. In addition, in assay [3] (Yellow Fever Mosquito), the YFM rating entry is recorded as “A (80–100)”.

With `O=C(Nc1ccc(F)c(NC(=O)C(F)F)c1F)c1cc(NC(=O)[C@H]2[C@H](c3ccc(F)c(C(F)(F)F)c3)C2(Cl)Cl)c(F)cc1Cl` [F1729, 2-Chloro-5-((1R,3R)-2,2-dichloro-3-(4-fluoro-3-(trifluoromethyl)phenyl)cyclopropane-1-carboxamido)-N-(3-(2,2-difluoroacetamido)-2,4-difluorophenyl)-4-fluorobenzamide], the pest or weed control at 50 µg/cm2 in assay [1] (setting [4]) and in assay [2] (setting [5]) was 50 to 100% each time. In addition, the YFM result in assay [3] (setting [6]) is given as “A (80–100)”.

As for `O=C(Nc1ccc(F)c(NC(=O)C(Br)Br)c1F)c1cc(NC(=O)[C@H]2[C@H](c3ccc(F)c(C(F)(F)F)c3)C2(Cl)Cl)ccc1Cl` [F1355, 2-Chloro-N-(3-(2,2-dibromoacetamido)-2,4-difluorophenyl)-5-((1R,3R)-2,2-dichloro-3-(4-fluoro-3-(trifluoromethyl)phenyl)cyclopropane-1-carboxamido)benzamide], the pest or weed control at 50 µg/cm2 in assay [1] (setting [7]) and in assay [2] (setting [8]) was 50 to 100% in each case. For the same molecule, the YFM result in assay [3] (setting [9]) is given as “A (80–100)”.

The values above are taken from patent US20250228239A1, “MOLECULES HAVING PESTICIDAL UTILITY, AND INTERMEDIATES, COMPOSITIONS, AND PROCESSES, RELATED THERETO” (priority 2024, published 2025).
